Experimental data reported in US12295968B2, “Compositions and methods for targeted immunomodulatory antibodies and fusion proteins” (The Johns Hopkins University, priority 2010, dated 2025).
“Also recorded” adds a separate entry of the source.

Assays:
[1] = system: mouse NKG2D ligands (Rae-1); test: Quantitative real-time PCR of Rae1 transcripts in CT26 cells; assay type: cell-based; conditions: irinotecan 25 μg/ml or oxaliplatin 10 μg/ml
[2] = system: human NKG2D ligands (MICA/MICB); test: Flow cytometry of cell surface MICA/B on HCT116 cells; assay type: cell-based; conditions: irinotecan 25 μg/ml, 16 h
CT26 tumors = test: CT26 tumor volume, irinotecan with or without NKG2D blocking, anti-CD4 and/or anti-CD8 antibody; assay type: in vivo, Balb/C mice; conditions: irinotecan alone
MB49 tumors [3] = test: MB49 tumor volume, chemotherapy with or without anti-CD4 or anti-CD8 antibody; assay type: in vivo, C57BL/6 mice
From the text: (§1) (FIG. 55A) In vivo depletion of tumor-infiltrating CD4^+CD25^+FoxP3^+ T cells by treatment of tumor-bearing mice with anti-CD4 antibody. C57BL/6 mice injected with 5×10^5 MB49 tumor cells s.c. were left untreated (control) or administered an anti-CD4 antibody (Clone GK1.5) i.p. at 5 d and 9 d following tumor challenge. CD4^+CD25^+FoxP3^+ T cells infiltrating tumors isolated from mice at d16 following tumor challenge were detected by flow cytometry. […] Flow cytometric analyses of peripheral blood mononuclear cells isolated from mice at d16 following tumor challenge determined the percentage of CD4^+ T cells or CD8^+ T cells among total mononuclear cells, and the percentage of CD4^+CD25^+FoxP3^+ T cells among total CD4^+ T cells. […] Tumor-reactive immune responses were determined by flow cytometric analyses of IFN-γ expression in CD8^+ T cells from the tumor and draining lymph node in response to in vitro stimulation with MB49 cell lysates. […] Tumor volume was monitored to determine the effect of depleting either CD4^+ T cells or CD8^+ T cells on the in vivo antitumor efficacy of doxorubicin. […]

[4] = system: mouse MB49 bladder cancer cells; test: Surface exposure of calreticulin (CRT), immunofluorescence cytometry; assay type: cell-based; conditions: 4 h
[5] = system: tumor-reactive CD8^+ T cells; test: Flow cytometry of IFN-γ expression in CD8^+ T cells from tumor and draining lymph node, stimulation with MB49 cell lysates; assay type: in vivo, C57BL/6 mice
From the text: as §1

MB49 tumor cells = test: Priming of tumor-reactive immune responses: IFN-γ production by draining lymph node (DLN) cells on in vitro re-challenge; assay type: in vivo, C57BL/6 mice; conditions: intratumoral doxorubicin 10 μg at d10 following tumor inoculation, established tumors
[6] = system: human SW780 bladder cancer cells; test: Surface exposure of calreticulin (CRT), immunofluorescence cytometry; assay type: cell-based; conditions: doxorubicin 10 μM, 4 h
MB49 tumors [7] = test: Intratumoral doxorubicin in mice with pre-established MB49 tumors, tumor growth; assay type: in vivo, C57BL/6 mice

SMILES: CCc1c2c(nc3ccc(OC(=O)N4CCC(N5CCCCC5)CC4)cc13)-c1cc3c(c(=O)n1C2)COC(=O)[C@]3(O)CC [irinotecan]
- time after which Rae1 mRNA began to decline [1]: 48 h
- cell surface expression of MICA, MICB ([2]; HCT116 cells): upregulated
- p53 dependence of upregulation of MICA/B ([2]; isogenic p53^+/+ and p53^−/− HCT116 cells): p53 is not required
- growth of CT26 tumors (CT26 tumors; 50 mg/kg i.p. weekly×3 from d5): inhibited the growth of CT26 tumors
- growth of CT26 tumors (CT26 tumors; 50 mg/kg i.p. weekly×3 from d7): only slowed tumor growth

SMILES: N.N.[Cl][Pt][Cl] [cisplatin]
- growth of MB49 tumors (MB49 tumors [3]; cisplatin alone, 0.5 mg/kg i.p. weekly×4): partially inhibited tumor growth but failed to arrest tumor progression
- CRT exposure compared to doxorubicin ([4]; equitoxic doses): less effective in increasing CRT exposure
- IFN-γ expression in CD8^+ T cells ([5]; cisplatin alone, 0.5 mg/kg i.p. weekly×4 from d7): unable to induce a corresponding elevation of IFN-γ expression

SMILES: COc1cccc2c1C(=O)c1c(O)c3c(c(O)c1C2=O)C[C@@](O)(C(=O)CO)C[C@@H]3O[C@H]1C[C@H](N)[C@H](O)[C@H](C)O1 [doxorubicin]
- IFN-γ secretion by DLN cells on re-challenge with MB49 cell lysates (MB49 tumor cells): failed to induce a corresponding increase in IFN-γ secretion
- growth of MB49 tumors (MB49 tumors [3]; doxorubicin alone, 5 mg/kg i.p. weekly×3): inhibited the growth of MB49 tumors but failed to arrest tumor progression
- surface exposure of CRT ([4]; doxorubicin 10 μM): induced rapid surface exposure of CRT; also recorded: efficient translocation of CRT to the cell surface
- surface exposure of CRT [6]: induced rapid surface exposure of CRT
- IFN-γ^+CD8^+ T cells ([5]; doxorubicin alone, 5 mg/kg i.p. weekly×3 from d7, 5 mg/kg): IFN-γ^+CD8^+ T cells became evident; also recorded: tumor-reactive IFN-γ^+CD8^+ T cells were evident
- tumor growth (MB49 tumors [7]; intratumoral doxorubicin 10 μg on d3 following tumor inoculation): able to arrest tumor growth
- tumor growth (MB49 tumors [7]; intratumoral doxorubicin 10 μg on d10 following tumor inoculation): failed to inhibit the progressive growth

SMILES: O=C1[O][Pt]2([NH][C@@H]3CCCC[C@H]3[NH]2)[O]C1=O [oxaliplatin]
- time after which Rae1 mRNA began to decline [1]: 48 h
